Patent EP0238060B1, “Cephalosporin derivatives, processes for their preparation and antibacterial agents” (Banyu Pharmaceutical Co., Ltd., priority 1986, dated 1987)
Converted amounts (≈) assume the structure as drawn.

What was measured:
A.calcoaceticus No. 4 = assay: In vitro antibacterial activity, agar plate dilution method (MIC); format: cell-based; settings: Acinetobacter calcoaceticus, NO.4, 16 h, read-out: Minimum Inhibitory Concentration (MIC: µg/ml)
C.freundii GN346/16 = assay: as above; format: cell-based; settings: Citrobacter freundii, GN346, 16 h, read-out: Minimum Inhibitory Concentration (MIC: µg/ml)
C.freundii GN346 = assay: as above; format: cell-based; settings: Citrobacter freundii, GN346, 16 h, read-out: Minimum Inhibitory Concentration (MIC: µg/ml)
E.cloacae 963 = assay: as above; format: cell-based; settings: Enterobacter cloacae, 963, 16 h, read-out: Minimum Inhibitory Concentration (MIC: µg/ml)
E.cloacae Nek 39 = assay: as above; format: cell-based; settings: Enterobacter cloacae, NEK39, 16 h, read-out: Minimum Inhibitory Concentration (MIC: µg/ml)
E.coli CSH(RE45) = assay: as above; format: cell-based; settings: Escherichia coli, 16 h, read-out: Minimum Inhibitory Concentration (MIC: µg/ml)
E.coli CSH2 (RK1) = assay: as above; format: cell-based; settings: Escherichia coli, 16 h, read-out: Minimum Inhibitory Concentration (MIC: µg/ml)
E.coli GN5482 = assay: as above; format: cell-based; settings: Escherichia coli, GN5482, 16 h, read-out: Minimum Inhibitory Concentration (MIC: µg/ml)
E.coli NIHJ JC2 = assay: as above; format: cell-based; settings: Escherichia coli, NIHJJC2, 16 h, read-out: Minimum Inhibitory Concentration (MIC: µg/ml)
K.oxytoca GN10650 = assay: as above; format: cell-based; settings: Klebsiella oxytoca, GN10650, 16 h, read-out: Minimum Inhibitory Concentration (MIC: µg/ml)
K.pneumoniae No. 42 = assay: as above; format: cell-based; settings: Klebsiella pneumoniae, NO.42, 16 h, read-out: Minimum Inhibitory Concentration (MIC: µg/ml)
K.pneumoniae PCI-602 = assay: as above; format: cell-based; settings: Klebsiella pneumoniae, PCI602, 16 h, read-out: Minimum Inhibitory Concentration (MIC: µg/ml)
M.luteus ATCC9341 = assay: as above; format: cell-based; settings: Micrococcus luteus, ATCC9341, 16 h, read-out: Minimum Inhibitory Concentration (MIC: µg/ml)
M.morganii GN5407 = assay: as above; format: cell-based; settings: Morganella morganii, GN5407, 16 h, read-out: Minimum Inhibitory Concentration (MIC: µg/ml)
P.vulgaris HX-19 = assay: as above; format: cell-based; settings: Proteus vulgaris, HX19, 16 h, read-out: Minimum Inhibitory Concentration (MIC: µg/ml)
P.vulgaris No. 33 = assay: as above; format: cell-based; settings: Proteus vulgaris, NO.33, 16 h, read-out: Minimum Inhibitory Concentration (MIC: µg/ml)
Ps.aeruginosa AK 109 = assay: as above; format: cell-based; settings: Pseudomonas aeruginosa, AK109, 16 h, read-out: Minimum Inhibitory Concentration (MIC: µg/ml)
Ps.aeruginosa AKR17 = assay: as above; format: cell-based; settings: Pseudomonas aeruginosa, AKR17, 16 h, read-out: Minimum Inhibitory Concentration (MIC: µg/ml)
Ps.aeruginosa IFO3445 = assay: as above; format: cell-based; settings: Pseudomonas aeruginosa, IFO3445, 16 h, read-out: Minimum Inhibitory Concentration (MIC: µg/ml)
S.aureus 209P NIHJ-JC1 = assay: as above; format: cell-based; settings: Staphylococcus aureus, 16 h, read-out: Minimum Inhibitory Concentration (MIC: µg/ml)
S.aureus BB5703 = assay: as above; format: cell-based; settings: Staphylococcus aureus, BB5703, 16 h, read-out: Minimum Inhibitory Concentration (MIC: µg/ml)
S.aureus JS1 = assay: as above; format: cell-based; settings: Staphylococcus aureus, JS1, 16 h, read-out: Minimum Inhibitory Concentration (MIC: µg/ml)
S.epidermidis IAM12012 = assay: as above; format: cell-based; settings: Staphylococcus epidermidis, IAM12012, 16 h, read-out: Minimum Inhibitory Concentration (MIC: µg/ml)
S.marcescens IAM 1184 = assay: as above; format: cell-based; settings: Serratia marcescens, IAM1184, 16 h, read-out: Minimum Inhibitory Concentration (MIC: µg/ml)
S.marcescens No. 16-2 = assay: as above; format: cell-based; settings: Serratia marcescens, NO.162, 16 h, read-out: Minimum Inhibitory Concentration (MIC: µg/ml)
Ps.cepacia 23 = assay: as above; format: cell-based, Pseudomonas cepacia; settings: Burkholderia cepacia, 23, 16 h, read-out: Minimum Inhibitory Concentration (MIC: µg/ml)
Ps.maltophilia GN 12873 = assay: as above; format: cell-based, Pseudomonas maltophilia; settings: Stenotrophomonas maltophilia, GN12873, 16 h, read-out: Minimum Inhibitory Concentration (MIC: µg/ml)
[1] = system: Enterobacter cloacae GN 5797; assay: Induction of β-lactamase by β-lactam antibiotics; format: cell-based
Description: The assay method for induction of β-lactamase by β-latam antibiotics was as follows: The test organism, Enterobacter cloacae GN 5797, was grown overnight in Mueller Hinton broth (Dlfco Laboratories, Detroit, Mich.) at 37°C. The culture was diluted l0-fold into 20 ml of the flesh medium and incubated with shaking at 37°C. After 2 hours of incubation, antibiotics were added to final concentrations of 50 µg/ml, l0 µg/ml and l µg/ml, and the incubation was continued. At l hour intervals after the addition of antibiotic, 5 ml of sample was taken, and immediately added with 0.l ml of 50 mM sodium azide. The cells were harvested and washed with 50 mM phosphate buffer (pH 7.0). The cells were suspended in 5 ml of 50 mM phosphate buffer and disrupted with a sonicater in an ice-water bath. The broken cells were centrifuged at l6,500 G for 40 minutes at 4°C, and the resulting supernatant fluid was used as the crude enzyme. β-Lactamase activity was determined by a spectrophotometric method (Antmicrob. Agents Chemother. 17, 355-358, 1980) with cephaloridine as substrate. The concentration of protein was determined by the method of Lowry (J. Biol. Chem. 193, 265-275, 1951).

Structure (SMILES): CC(C)(O/N=C(\C(=O)NC1C(=O)N2C(C(=O)[O-])=C(C[n+]3ccc4cc(O)c(O)cc4c3)CSC12)c1csc(N)n1)C(=O)O (stereo not drawn) [Ex. 4, 7-[2-(2-aminothiazol-4-yl)-2-(l-carboxy-l-methylethoxyimino)acetamido]-3-(6,7-dihydroxy-2-isoquinolinio)methyl-3-cephem-4-carboxylate]
- MIC (A.calcoaceticus No. 4): 0.1 µg/mL (≈ 0.159 µM)
- MIC (C.freundii GN346/16): 1.56 µg/mL (≈ 2.48 µM)
- MIC (C.freundii GN346): 50 µg/mL (≈ 79.5 µM)
- MIC (E.cloacae 963): 0.025 µg/mL (≈ 0.0398 µM)
- MIC (E.cloacae Nek 39): 0.025 µg/mL (≈ 0.0398 µM)
- MIC (E.coli CSH(RE45)): 0.39 µg/mL (≈ 0.62 µM)
- MIC (E.coli CSH2 (RK1)): < 0.006 µg/mL
- MIC (E.coli GN5482): 0.39 µg/mL (≈ 0.62 µM)
- MIC (E.coli NIHJ JC2): 0.1 µg/mL (≈ 0.159 µM)
- MIC (K.oxytoca GN10650): < 0.006 µg/mL
- MIC (K.pneumoniae No. 42): 0.025 µg/mL (≈ 0.0398 µM)
- MIC (K.pneumoniae PCI-602): < 0.006 µg/mL
- MIC (M.luteus ATCC9341): 6.25 µg/mL (≈ 9.94 µM)
- MIC (M.morganii GN5407): 0.05 µg/mL (≈ 0.0795 µM)
- MIC (P.vulgaris HX-19): < 0.006 µg/mL
- MIC (P.vulgaris No. 33): 0.0125 µg/mL (≈ 0.0199 µM)
- MIC (Ps.aeruginosa AK 109): 0.2 µg/mL (≈ 0.318 µM)
- MIC (Ps.aeruginosa AKR17): 0.78 µg/mL (≈ 1.24 µM)
- MIC (Ps.aeruginosa IFO3445): 0.2 µg/mL (≈ 0.318 µM)
- MIC (S.aureus 209P NIHJ-JC1): 25 µg/mL (≈ 39.8 µM)
- MIC (S.aureus BB5703): 50 µg/mL (≈ 79.5 µM)
- MIC (S.aureus JS1): 100 µg/mL (≈ 159 µM)
- MIC (S.epidermidis IAM12012): 12.5 µg/mL (≈ 19.9 µM)
- MIC (S.marcescens IAM 1184): 0.0125 µg/mL (≈ 0.0199 µM)
- MIC (S.marcescens No. 16-2): 0.2 µg/mL (≈ 0.318 µM)
- MIC (Ps.cepacia 23): < 0.006 µg/mL
- MIC (Ps.maltophilia GN 12873): 1.56 µg/mL (≈ 2.48 µM)
- Specific activity (unit/mg protein) ([1]; induced β-lactamase activity of crude enzyme, Concentration 10 µg/ml, Incubation time 3 hr, Substrate: 100 µM of cephaloridine): 0.064 unit/mg protein
- β-lactamase inducibility ([1]; measured by Enterobacter cloacae GN 5797): no substantial β-lactamase-inducing activity was observed
